# In US4698352A, “4-oxo-1,4-dihydronicotinic acid derivatives, salts thereof, and antibacterial agents containing the same” (Toyama Chemical Co., Ltd., priority 1982, dated 1987):
# Where two headings read alike, the source gives them in different places.
# Tests used:
# Assay in all cases: Antibacterial activity (MIC), agar dilution
# Type in all cases: cell-based
# Ps. aeruginosa GN3379* = details: Pseudomonas aeruginosa, Ps. aeruginosa GN3379, penicillinase-producing, 10^6 cells per ml
# Source text: (§1) The amount of bacteria inoculated was 10^4 cells per plate (10^6 cells per ml).
# (§2) * Penicillinase-producing bacteria
# St. aureus F-137* = details: Staphylococcus aureus, 20 h, St. aureus F-137, penicillinase-producing; 10^6 cells per ml; read-out: MIC
# Source text: as §1, §2
# E. coli TK-3* = details: Escherichia coli, 20 h
# Source text: as §1, §2
# Kl. pneumoniae Y-4* = details: Klebsiella pneumoniae, 20 h, Kl. pneumoniae Y-4, penicillinase-producing; 10^6 cells per ml; read-out: MIC
# Source text: as §1, §2
# Pro. vulgaris GN76** = details: Proteus vulgaris
# Source text: as §1
# (§3) ** Cephalospolinase-producing bacteria
# Ps. aeruginosa GN918** = details: Pseudomonas aeruginosa, Ps. aeruginosa GN918, cephalospolinase-producing, 10^6 cells per ml
# Source text: as §1, §3
# E. coli GN5482** = details: Escherichia coli, 20 h; E. coli GN5482, cephalospolinase-producing; 10^6 cells per ml; read-out: MIC
# Source text: as §1, §3
# Aci. antitratus A-6 = details: 20 h, Aci. antitratus A-6; 10^6 cells per ml; 37° C., 20 hours; read-out: MIC
# Source text: as §1
# Kl. pneumoniae Y-50 = details: Klebsiella pneumoniae, Y50, 20 h, 10^6 cells per ml, 37° C., read-out: MIC
# Source text: as §1
# E. coli NIHJ JC-2 = details: Escherichia coli, NIHJJC2, 20 h, E. coli NIHJ JC-2; 10^6 cells per ml; 37° C., 20 hours; read-out: MIC
# Source text: as §1
# Pro. morganii T-216 = details: Morganella morganii, 37° C.
# Source text: as §1
# Ps. aeruginosa S-68 = details: Pseudomonas aeruginosa
# Source text: as §1
# Kl. pneumoniae Y-41 = details: Klebsiella pneumoniae, Y41, 10^6 cells per ml, 37° C., 20 hours, read-out: MIC
# Source text: as §1
# E. coli TK-111 = details: Escherichia coli, TK111, 20 h, E. coli TK-111; 10^6 cells per ml; 37° C., 20 hours; read-out: MIC
# Source text: as §1
# Ps. aeruginosa IFO3445 = details: Pseudomonas aeruginosa
# Source text: as §1
# St. aureus FDA209P = details: Staphylococcus aureus, FDA209P, 20 h, St. aureus FDA209P; 10^6 cells per ml; 37° C., 20 hours; read-out: MIC
# Source text: as §1
# Pro. vulgaris GN3027 = details: Proteus vulgaris, GN3027, 20 h, Pro. vulgaris GN3027; 10^6 cells per ml; 37° C., 20 hours; read-out: MIC
# Source text: as §1
# Ent. cloacae IID977 = details: Enterobacter cloacae, IID977, 20 h
# Source text: as §1
# Pro. mirabilis T-111 = details: Proteus mirabilis, 37° C.
# Source text: as §1
# [1] = E. coli TK-3, penicillinase-producing, 10^6 cells per ml, read-out: MIC
# [2] = 20 h, Pro. vulgaris GN76, cephalospolinase-producing, 10^6 cells per ml, read-out: MIC
# [3] = S68, Ps. aeruginosa S-68, 10^6 cells per ml, 37° C., 20 hours, read-out: MIC
# [4] = Ps. aeruginosa IFO3445, 10^6 cells per ml, 37° C., 20 hours, read-out: MIC
# [5] = Ent. cloacae IID977, 10^6 cells per ml, 37° C., 20 hours, read-out: MIC
# [6] = T216, 10^6 cells per ml, 20 hours, read-out: MIC
# [7] = T111, 10^6 cells per ml, 20 hours, read-out: MIC
SMILES,"MIC (Ps. aeruginosa GN3379*; 20 h, read-out: MIC) [µg/mL]",MIC (St. aureus F-137*) [µg/mL],MIC (E. coli TK-3*; [1]) [µg/mL],MIC (Kl. pneumoniae Y-4*) [µg/mL],MIC (Pro. vulgaris GN76**; [2]) [µg/mL],"MIC (Ps. aeruginosa GN918**; 20 h, read-out: MIC) [µg/mL]",MIC (E. coli GN5482**) [µg/mL],MIC (Aci. antitratus A-6) [µg/mL],MIC (Kl. pneumoniae Y-50) [µg/mL],MIC (E. coli NIHJ JC-2) [µg/mL],MIC (Ps. aeruginosa S-68; [3]) [µg/mL],MIC (Kl. pneumoniae Y-41) [µg/mL],MIC (E. coli TK-111) [µg/mL],MIC (Ps. aeruginosa IFO3445; [4]) [µg/mL],MIC (St. aureus FDA209P) [µg/mL],MIC (Pro. vulgaris GN3027) [µg/mL],MIC (Ent. cloacae IID977; [5]) [µg/mL],"MIC (Pro. mirabilis T-111; T111, 20 h, 10^6 cells per ml) [µg/mL]",MIC (Pro. morganii T-216; [6]) [µg/mL],"MIC (Ps. aeruginosa S-68; S68, 20 h) [µg/mL]",also measured
CN(C)c1ccc(-c2cc(=O)c(C(=O)O)cn2-c2cccc(O)c2)cc1,6.25,0.2,0.39,3.13,0.78,12.5,≤ 0.05,0.39,0.39,0.39,6.25,1.56,0.1,12.5,0.2,0.2,0.78,3.13,–,–,"MIC (Pro. morganii T-216; T216, 20 h, 10^6 cells per ml): 1.56 µg/mL"
O=C(O)c1cn(-c2ccc(O)cc2)c(-c2ccc3ccccc3c2)cc1=O,3.13,≤ 0.05,0.39,1.56,0.39,6.25,≤ 0.05,0.2,0.39,0.2,–,1.56,≤ 0.05,6.25,≤ 0.05,0.1,0.39,–,0.39,1.56,MIC (Pro. mirabilis T-111; [7]): 0.78 µg/mL
O=C(O)c1cn(-c2ccc(O)cc2)c(-c2ccc(-c3ccccc3)s2)cc1=O,–,≤ 0.05,0.78,1.56,0.39,–,≤ 0.05,0.2,0.78,0.39,–,3.13,≤ 0.05,–,≤ 0.05,≤ 0.05,–,–,0.78,3.13,"MIC (Ps. aeruginosa GN3379*; GN3379, 20 h): 3.13 µg/mL; MIC (Ps. aeruginosa GN918**; GN918, 20 h): 1.56 µg/mL; MIC (Ps. aeruginosa IFO3445; IFO3445, 20 h): 3.13 µg/mL; MIC (Ent. cloacae IID977): 1.56 µg/mL; MIC (Pro. mirabilis T-111; [7]): 0.78 µg/mL"
CN(C)c1ccc(-c2cc(=O)c(C(=O)O)cn2-c2cccc3c(O)cccc23)cc1,> 100,≤ 0.05,1.56,6.25,1.56,–,≤ 0.05,0.39,0.78,0.39,12.5,6.25,≤ 0.05,12.5,0.1,1.56,1.56,–,3.13,–,"MIC (Ps. aeruginosa GN918**; GN918, 20 h): 6.25 µg/mL; MIC (Pro. mirabilis T-111; [7]): 3.13 µg/mL"
O=C(O)c1cn(-c2ccc(F)cc2)c(/C=C/c2ccccc2)cc1=O,25,3.13,–,25,3.13,50,0.39,1.56,6.25,3.13,25,12.5,1.56,50,3.13,0.78,–,12.5,–,–,"MIC (E. coli TK-3*): 12.5 µg/mL; MIC (Pro. morganii T-216; T216, 20 h, 10^6 cells per ml): 12.5 µg/mL; MIC (Ent. cloacae IID977): 12.5 µg/mL"
CN(C)c1ccc(-c2cc(=O)c(C(=O)O)cn2-c2ccc(F)cc2)cc1,–,0.78,3.13,12.5,–,–,0.2,0.39,1.56,0.78,–,6.25,0.39,25,0.78,0.39,3.13,6.25,3.13,12.5,"MIC (Ps. aeruginosa GN3379*; GN3379, 20 h): 12.5 µg/mL; MIC (Pro. vulgaris GN76**; GN76, 20 h): 1.56 µg/mL; MIC (Ps. aeruginosa GN918**; GN918, 20 h): 12.5 µg/mL"
